14 compounds from ChEMBL document CHEMBL3232809, “Synthesis, antibiotic activity and structure-activity relationship study of some 3-enaminetetramic acids” (2014) can be followed below.

What all share (assay type): functional
The test system of assay [1] is Haemophilus influenzae. The experiment in a line: Antimicrobial activity against LS2 Efflux knock-out Haemophilus influenzae.
For assay [2], the system named is Streptococcus pneumoniae. The experiment in a line: Antimicrobial activity against penicillin- and erythromycin-resistant Streptococcus pneumoniae in presence of 2.5% horse blood.
Assay [3] has as its system Enterococcus faecium. Kind of assay: Antimicrobial activity against vancomycin-resistant Enterococcus faecium.
Assay [4] relates to Escherichia coli. The experiment in a line: Antimicrobial activity against Escherichia coli ATCC 25922.
Assay [5] concerns Staphylococcus aureus. Kind of assay: Antimicrobial activity against Staphylococcus aureus Oxford.
Assay [6] deals with Enterococcus faecalis. Kind of assay: Antimicrobial activity against vancomycin-susceptible Enterococcus faecalis ATCC 29212.
Assay [7] has as its system Staphylococcus aureus. The experiment in a line: Antimicrobial activity against vancomycin-susceptible Staphylococcus aureus ATCC 25923.
The subject of assay [8] is Pseudomonas aeruginosa. The experiment in a line: Antimicrobial activity against Pseudomonas aeruginosa ATCC 27853.
Assay [9] relates to Staphylococcus aureus. Kind of assay: Antimicrobial activity against methicillin-sensitive Staphylococcus aureus ATCC 13709.
Assay [10] relates to Haemophilus influenzae. The experiment in a line: Antimicrobial activity against Haemophilus influenzae ATCC 31517 MMSA.
Assay [11] relates to Escherichia coli. Kind of assay: Antimicrobial activity against Escherichia coli 49.
Assay [12] relates to Streptococcus pneumoniae. The experiment in a line: Antimicrobial activity against penicillin- and erythromycin-resistant Streptococcus pneumoniae.
The subject of assay [13] is Streptococcus pneumoniae. Kind of assay: Antimicrobial activity against erythromycin-susceptible Streptococcus pneumoniae ATCC 49619.
Assay [14] relates to Escherichia coli. Kind of assay: Antimicrobial activity against Escherichia coli 50.
Assay [15] relates to Staphylococcus aureus. The experiment in a line: Antimicrobial activity against methicillin-resistant Staphylococcus aureus.

≈ marks a conversion by molar mass, not a printed value. A value given as a limit tells only on which side of the number the result lay.

Consider `CCCCCCC(=O)N1CC(=O)/C(=C(\CCCCCC)NC2CCCCC2)C1=O`, for which the MIC in assay [1], in assay [2], in assay [3], in assay [4], in assay [5] and in [6] was above 32 µg/mL in each case. Moreover, the MIC in [7], in assay [8], in assay [9], in assay [10], in [11] and in [12] was above 32 µg/mL throughout. The MIC in [13], in assay [14] and in assay [15] was above 32 µg/mL each time.
Turning to `CSCCC1C(=O)/C(=C(\CC23CC4CC(CC(C4)C2)C3)NCC(C)(C)CN(C)C)C(=O)N1C(C)=O` (stereo not given), the MIC in [1], in [2], in assay [3], in assay [4], in [5] and in assay [6] was above 32 µg/mL each time. The MIC in assay [7], in assay [8], in [9], in assay [10], in assay [11] and in [12] was above 32 µg/mL each time. Besides, the MIC in [13], in [14] and in assay [15] was above 32 µg/mL in each case.
Regarding `CCCCCCCCCC/C(NCCCOC(C)C)=C1\C(=O)C(CCSC)N(C(C)=O)C1=O` (stereo not given), the MIC in [1], in [2], in [3], in assay [4], in assay [5] and in assay [6] was above 32 µg/mL each time. In addition, the MIC in assay [7], in assay [8], in assay [9], in assay [10], in assay [11] and in [12] was above 32 µg/mL in each case. Besides, the MIC in [13], in assay [14] and in assay [15] was above 32 µg/mL in each case.
`CCN(CC)CCCC(C)N/C(CCCOc1ccccc1)=C1/C(=O)C(CC(C)C)N(C(=O)c2ccccc2)C1=O` (stereo not given): the MIC in assay [1], in assay [2], in assay [3], in [4], in assay [5] and in [6] was above 32 µg/mL throughout. Besides, the MIC in [7], in assay [8], in [9], in assay [10], in assay [11] and in [12] was above 32 µg/mL each time. For the same compound, the MIC in assay [13], in [14] and in [15] was above 32 µg/mL throughout.
With `CC(C)(C)[C@H]1OC[C@@H]2C(=O)/C(=C(/NCCCCN)c3ccccc3)C(=O)N21`, the MIC in assay [1], in assay [2], in assay [3], in [4], in assay [5] and in assay [6] was above 32 µg/mL throughout. Moreover, the MIC in assay [7], in [8], in assay [9], in assay [10], in [11] and in assay [12] was above 32 µg/mL each time. Further, the MIC in [13], in [14] and in assay [15] was above 32 µg/mL each time.
As to `CC1CCCCN1CCCN/C(CC12CC3CC(C)(CC(C)(C3)C1)C2)=C1/C(=O)[C@@H]2CCCC(=O)N2C1=O` (stereo not given in full), the MIC in assay [1], in assay [2], in [3], in assay [4], in assay [5] and in assay [6] was above 32 µg/mL in each case. Also, the MIC in assay [7], in assay [8], in [9], in assay [10], in [11] and in [12] was above 32 µg/mL in each case. The MIC in assay [13], in [14] and in assay [15] was above 32 µg/mL each time.
Turning to `CCCCCC/C(=C1/C(=O)N2[C@@H](C(C)(C)C)OC[C@]2(C(=O)OC)C1=O)N1CCCCC1`, the MIC in [1], in [2], in [3], in [4], in assay [5] and in assay [6] was above 32 µg/mL each time. The MIC in assay [7], in assay [8], in [9], in assay [10], in assay [11] and in [12] was above 32 µg/mL each time. The MIC in [13], in assay [14] and in assay [15] was above 32 µg/mL in each case.
Regarding `CCOC(=O)[C@]12CO[C@H](C(C)(C)C)N1C(=O)/C(=C(/CC13CC4CC(C)(CC(C)(C4)C1)C3)NC(C)CCCN(CC)CC)C2=O` (stereo not given in full), the MIC in assay [1], in assay [2], in [3], in assay [4], in assay [5] and in [6] was above 32 µg/mL throughout. The MIC in [7], in assay [8], in assay [9], in [10], in assay [11] and in [12] was above 32 µg/mL in each case. In addition, the MIC in assay [13], in assay [14] and in assay [15] was above 32 µg/mL throughout.
Regarding `CCOC(=O)[C@]12CO[C@H](C(C)(C)C)N1C(=O)/C(=C(/CC13CC4CC(CC(C4)C1)C3)NCC(C)(C)CN(C)C)C2=O`, the MIC in assay [1], in [2], in assay [3], in assay [4], in assay [5] and in [6] was above 32 µg/mL in each case. Also, the MIC in [7], in [8], in assay [9], in assay [10], in assay [11] and in [12] was above 32 µg/mL each time. For the same compound, the MIC in assay [13], in assay [14] and in assay [15] was above 32 µg/mL each time.
On to `COC(=O)[C@]12CO[C@H](C(C)(C)C)N1C(=O)/C(=C(/CCCOc1ccccc1)NCCCOC(C)C)C2=O`, for which the MIC in assay [1], in assay [2], in [3], in [4], in assay [5] and in assay [6] was above 32 µg/mL throughout. Also, the MIC in assay [7], in assay [8], in assay [9], in assay [10], in [11] and in assay [12] was above 32 µg/mL in each case. Moreover, the MIC in assay [13], in [14] and in [15] was above 32 µg/mL each time.
`COC(=O)[C@]12CO[C@H](C(C)(C)C)N1C(=O)/C(=C(/CCCOc1ccccc1)NCCN1CCCCC1)C2=O`: the MIC in assay [1], in [2], in assay [3], in [4], in assay [5] and in assay [6] was above 32 µg/mL each time. Moreover, the MIC in assay [7], in assay [8], in [9], in assay [10], in assay [11] and in assay [12] was above 32 µg/mL in each case. The MIC in assay [13], in assay [14] and in [15] was above 32 µg/mL each time.
Turning to `C/C(NC12CC3CC(CC(C3)C1)C2)=C1\C(=O)N2[C@H](C(C)(C)C)OC[C@@]2(C)C1=O` (mixture of isomers), the MIC in assay [1] was 16 µg/mL; in assay [2], above 64 µg/mL; in assay [3] it was above 64 µg/mL; in assay [4], above 32 µg/mL; in assay [5], above 64 µg/mL; in assay [6], above 64 µg/mL. In addition, the MIC was above 64 µg/mL in [7]; above 32 µg/mL in assay [8]; above 64 µg/mL in [9]; above 64 µg/mL in assay [10]; above 32 µg/mL in [11]; above 64 µg/mL in assay [12]. Moreover, the MIC is above 64 µg/mL in assay [13], above 32 µg/mL in [14] and above 64 µg/mL in [15].
Take `C/C(NCCOc1ccccc1)=C1\C(=O)N2[C@H](C(C)(C)C)OC[C@@]2(C)C1=O` (racemic): the MIC in [1] is below 0.06 µg/mL; in assay [2], 2 µg/mL; in assay [3], 1 µg/mL (≈ 2.68 µM); in assay [4], above 32 µg/mL; in [5], 8 µg/mL (≈ 21.5 µM); in assay [6], 4 µg/mL (≈ 10.7 µM). For the same compound, the MIC in assay [7] was 4 µg/mL (≈ 10.7 µM); in assay [8] it was above 32 µg/mL; in [9], 8 µg/mL (≈ 21.5 µM); in assay [10], 4 µg/mL (≈ 10.7 µM); in assay [11], above 32 µg/mL; in [12], 1 µg/mL (≈ 2.68 µM). The MIC in [13] was 1 µg/mL (≈ 2.68 µM); in assay [14] it was above 32 µg/mL; in assay [15] it was 8 µg/mL (≈ 21.5 µM).
Turning to `C/C(Nc1ccccc1)=C1\C(=O)N2[C@H](C(C)(C)C)OC[C@@]2(C)C1=O` (racemic), the MIC is 8 µg/mL (≈ 24.4 µM) in [1]; 8 µg/mL in [2]; 32 µg/mL (≈ 97.4 µM) in assay [3]; above 32 µg/mL in [4]; 64 µg/mL (≈ 195 µM) in [5]; 64 µg/mL (≈ 195 µM) in assay [6]. Also, the MIC in [7] is 64 µg/mL (≈ 195 µM); in assay [8], above 32 µg/mL; in [9], 64 µg/mL (≈ 195 µM); in assay [10], above 64 µg/mL; in assay [11], above 32 µg/mL; in assay [12] it was 8 µg/mL (≈ 24.4 µM). The MIC in [13] is 8 µg/mL (≈ 24.4 µM); in [14], above 32 µg/mL; in [15], 64 µg/mL (≈ 195 µM).
